ChEMBL document CHEMBL1201862, “PubChem BioAssay data set” (2004)
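Method: 48-hour compound exposure of cells in 96-well plates, five concentrations, linear interpolation of endpoints. Abbreviation: GI50, concentration required for 50% inhibition of growth.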 Calls of active or inactive are those of the source. No stated cut-off is given here; in the data, active = GI50 up to about 1.1 µM and inactive = higher.

Experiments:
Assay in all cases: NCI tumour cell line growth inhibition, 48 h
[1] = test system: IGROV-1
[2] = test system: EKVX
[3] = test system: UACC-257
[4] = test system: NCI/ADR-RES
[5] = test system: HT-29
[6] = test system: A498
[7] = test system: COLO 205
[8] = test system: A549
[9] = test system: M14
[10] = test system: Hs-578T
[11] = test system: PC-3
[12] = test system: Malme-3M
[13] = test system: MCF7
[14] = test system: MDA-MB-435
[15] = test system: SF-268
[16] = test system: SW-620
[17] = test system: 786-0
[18] = test system: HL-60
[19] = test system: SK-MEL-5
[20] = test system: SK-MEL-2
[21] = test system: CAKI-1
[22] = test system: DU-145
[23] = test system: RXF 393
[24] = test system: CCRF-CEM
[25] = test system: U-251
[26] = test system: HCT-116
[27] = test system: UACC-62
[28] = test system: NCI-H23
[29] = test system: NCI-H226
[30] = test system: SF-295
[31] = test system: TK-10
[32] = test system: MDA-MB-231
[33] = test system: LOX IMVI
[34] = test system: OVCAR-4
[35] = test system: MOLT-4
[36] = test system: SNB-75
[37] = test system: BT-549
[38] = test system: T47D
[39] = test system: ACHN
[40] = test system: OVCAR-3
[41] = test system: HOP-62
[42] = test system: HCC 2998
[43] = test system: RPMI-8226
[44] = test system: NCI-H522
[45] = test system: SNB-19
[46] = test system: HOP-92
[47] = test system: SR
[48] = test system: SK-MEL-28
[49] = test system: SF-539
[50] = test system: OVCAR-5
[51] = test system: OVCAR-8
[52] = test system: HCT-15
[53] = test system: UO-31
[54] = test system: K562
[55] = test system: NCI-H460
[56] = test system: KM12

Question: Which results are given for CC(=O)OC1=C(c2ccccc2)S(=O)(=O)c2ccccc21?
Answer: GI50 [1]: > 100 µM (inactive); GI50 [2]: > 100 µM (inactive); GI50 [3]: > 100 µM (inactive); GI50 [4]: > 100 µM (inactive); GI50 [5]: > 100 µM (inactive); GI50 [6]: > 100 µM (inactive); GI50 [7]: > 100 µM (inactive); GI50 [8]: > 100 µM (inactive); GI50 [9]: > 100 µM (inactive); GI50 [10]: > 100 µM (inactive); GI50 [11]: > 100 µM (inactive); GI50 [12]: > 100 µM (inactive); GI50 [13]: > 100 µM (inactive); GI50 [14]: > 100 µM (inactive); GI50 [15]: > 100 µM (inactive); GI50 [16]: > 100 µM (inactive); GI50 [17]: > 100 µM (inactive); GI50 [18]: > 100 µM (inactive); GI50 [19]: > 100 µM (inactive); GI50 [20]: > 100 µM (inactive); GI50 [21]: > 100 µM (inactive); GI50 [22]: > 100 µM (inactive); GI50 [23]: 64 µM (inactive); GI50 [24]: 96.4 µM (inactive); GI50 [25]: > 100 µM (inactive); GI50 [26]: > 100 µM (inactive); GI50 [27]: > 100 µM (inactive); GI50 [28]: > 100 µM (inactive); GI50 [29]: > 100 µM (inactive); GI50 [30]: > 100 µM (inactive); GI50 [31]: > 100 µM (inactive); GI50 [32]: > 100 µM (inactive); GI50 [33]: > 100 µM (inactive); GI50 [34]: > 100 µM (inactive); GI50 [35]: > 100 µM (inactive); GI50 [36]: > 100 µM (inactive); GI50 [37]: > 100 µM (inactive); GI50 [38]: > 100 µM (inactive); GI50 [39]: > 100 µM (inactive); GI50 [40]: > 100 µM (inactive); GI50 [41]: > 100 µM (inactive); GI50 [42]: > 100 µM (inactive); GI50 [43]: > 100 µM (inactive); GI50 [44]: > 100 µM (inactive); GI50 [45]: > 100 µM (inactive); GI50 [46]: > 100 µM (inactive); GI50 [47]: > 100 µM (inactive); GI50 [48]: > 100 µM (inactive); GI50 [49]: > 100 µM (inactive); GI50 [50]: > 100 µM (inactive); GI50 [51]: > 100 µM (inactive); GI50 [52]: > 100 µM; GI50 [53]: > 100 µM (inactive); GI50 [54]: > 100 µM (inactive); GI50 [55]: > 100 µM (inactive); GI50 [56]: > 100 µM (inactive)
